Test results taken from patent publication US6872720B2 (dated 2005).

| melting point | SMILES |
| --- | --- |
| 150 to 153 °C | Cc1nnc(-c2ccccc2F)n2nc(OCc3ncnn3C)c(-c3ccoc3)c12 |
| 105 °C | CCn1ncnc1COc1nn2c(-c3ccccc3F)nnc(C)c2c1C1CCCC1 |
| 123 °C | Cc1nnc(-c2ccccc2F)n2nc(OCc3ncnn3C)c(C3CCCC3)c12 |
| 112 °C | CCn1ncnc1COc1nn2c(-c3ccccc3)nnc(C)c2c1C1CCCC1 |
| 159 °C | Cc1nnc(-c2ccccc2)n2nc(OCc3ncnn3C)c(C3CCCC3)c12 |
| 109 °C | CCn1ncnc1COc1nn2c(-c3cc(F)ccc3F)nnc(C)c2c1C(C)(C)C |

Further lines, the molecule ahead of its results:

| SMILES | melting point |
| --- | --- |
| Cc1nnc(-c2ccccc2F)n2nc(OCc3ncnn3C)c(-c3ccsc3)c12 | 124 to 129 °C |
| Cc1nnc(-c2ccccc2F)n2nc(OCc3ncn(C)n3)c(-c3ccsc3)c12 | 214 to 217 °C |
| Cc1nnc(-c2ccc(F)cc2)n2nc(OCc3ncnn3C)c(-c3ccsc3)c12 | 171 to 177 °C |
| Cc1nnc(-c2ccc(F)cc2F)n2nc(OCc3ncnn3C)c(-c3ccsc3)c12 | 144 to 146 °C |
